What was measured:
[1] = target: human Gal-3 (hGal-3) (Homo sapiens (Human), UniProt P17931); assay: Competitive binding assay: binding of biotinylated hGal-3 to microplate-adsorbed asialofetuin (ASF); details: Activity on hGal-3; mean values of several measurements
Outline: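 Compounds in DMSO dilution series competed with 300-1000 ng/mL biotinylated hGal-3 for asialofetuin adsorbed on the plate (3 h, 4° C). Streptavidin-peroxidase at 80 ng/mL (1 h, 4° C) with ABTS gave a spectrophotometric read-out, and IC50 was reported as the mean of repeat runs.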

[2] = target: human Gal-1 (hGal-1); assay: Competitive binding assay: binding of biotinylated hGal-1 to microplate-adsorbed asialofetuin (ASF); details: Activities on hGal-1; mean values of several measurements
Outline: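 Spectrophotometric readout (streptavidin-peroxidase, ABTS) of biotinylated galectin retained on ASF-coated wells. Biotinylated hGal-1 or hGal-3, 300-1000 ng/mL, co-incubated with test compound 3 h at 4° C, then washed. Mean IC50 from repeat runs.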

Chain of human Gal-3 (hGal-3) (P17931 whole entry): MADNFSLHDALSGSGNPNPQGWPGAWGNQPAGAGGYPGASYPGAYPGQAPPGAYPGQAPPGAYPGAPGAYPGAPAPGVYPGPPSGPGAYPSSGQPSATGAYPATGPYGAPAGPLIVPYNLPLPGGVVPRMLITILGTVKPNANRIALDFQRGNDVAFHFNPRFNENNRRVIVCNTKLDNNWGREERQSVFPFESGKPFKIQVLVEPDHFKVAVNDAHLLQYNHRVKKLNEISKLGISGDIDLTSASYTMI
Chain of human Gal-1 (hGal-1) (P09382 2-135 limits assumed): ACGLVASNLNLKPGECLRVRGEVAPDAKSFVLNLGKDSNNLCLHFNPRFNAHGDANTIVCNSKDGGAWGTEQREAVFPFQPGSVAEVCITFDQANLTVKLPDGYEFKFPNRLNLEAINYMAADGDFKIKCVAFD

SMILES | IC50 [1] | IC50 [2]
CO[C@@H]1[C@@H](n2cc(-c3cc(F)c(F)c(F)c3)nn2)[C@@H](O)[C@@H](CO)O[C@@H]1Cn1cc(C2CCN(C(=O)OCc3ccccc3)CC2)nn1 [Example 4.20, benzyl 4-(1-(((2R,3R,4S,5R,6R)-5-hydroxy-6-(hydroxymethyl)-3-methoxy-4-(4-(3,4,5-trifluorophenyl)-1H-1,2,3-triazol-1-yl)tetrahydro-2H-pyran-2-yl)methyl)-1H-1,2,3-triazol-4-yl)piperidine-1-carboxylate] | 21 nM | 520 nM
CO[C@@H]1[C@@H](n2cc(-c3cc(F)c(F)c(F)c3)nn2)[C@@H](O)[C@@H](CO)O[C@@H]1Cc1cn(C2CCN(S(=N)(=O)C(C)(C)C)CC2)nn1 (stereo partly drawn) [Example 4.21, (2R,3R,4S,5R,6R)-2-(hydroxymethyl)-5-methoxy-6-((1-(1-(2-methylpropan-2-ylsulfonimidoyl)piperidin-4-yl)-1H-1,2,3-triazol-4-yl)methyl)-4-(4-(3,4,5-trifluorophenyl)-1H-1,2,3-triazol-1-yl)tetrahydro-2H-pyran-3-ol] | 19 nM | 86 nM
CO[C@@H]1[C@@H](n2cc(-c3cc(F)c(F)c(F)c3)nn2)[C@@H](O)[C@@H](CO)O[C@@H]1Cn1cc(C2CCN(S(=O)(=O)c3ccc(C)cc3)CC2)nn1 [Example 4.23, (2R,3R,4S,5R,6R)-2-(hydroxymethyl)-5-methoxy-6-((4-(1-tosylpiperidin-4-yl)-1H-1,2,3-triazol-1-yl)methyl)-4-(4-(3,4,5-trifluorophenyl)-1H-1,2,3-triazol-1-yl)tetrahydro-2H-pyran-3-ol] | 38 nM | 1230 nM
CCN=S1(=O)CCC(n2cc(C[C@H]3O[C@H](CO)[C@H](O)[C@H](n4cc(-c5cc(F)c(F)c(F)c5)nn4)[C@H]3OC)nn2)CC1 (stereo partly drawn) [Example 4.24, 1-(ethylimino)-4-(4-(((2R,3R,4S,5R,6R)-5-hydroxy-6-(hydroxymethyl)-3-methoxy-4-(4-(3,4,5-trifluorophenyl)-1H-1,2,3-triazol-1-yl)tetrahydro-2H-pyran-2-yl)methyl)-1H-1,2,3-triazol-1-yl)hexahydro-1l6-thiopyran 1-oxide] | 54 nM | 310 nM
CN=S(=O)(C(C)C)N1CCC(c2cn(C[C@H]3O[C@H](CO)[C@H](O)[C@H](n4cc(-c5cc(F)c(F)c(F)c5)nn4)[C@H]3OC)nn2)CC1 (stereo partly drawn) [Example 4.25, (2R,3R,4S,5R,6R)-2-(hydroxymethyl)-5-methoxy-6-((4-(1-(N-methylpropan-2-ylsulfonimidoyl)piperidin-4-yl)-1H-1,2,3-triazol-1-yl)methyl)-4-(4-(3,4,5-trifluorophenyl)-1H-1,2,3-triazol-1-yl)tetrahydro-2H-pyran-3-ol] | 120 nM | 1570 nM

The next lines start with the values.

IC50 [1] | IC50 [2] | SMILES
45 nM | 770 nM | CO[C@@H]1[C@@H](n2cc(-c3cc(F)c(F)c(F)c3)nn2)[C@@H](O)[C@@H](CO)O[C@@H]1Cn1cc(C2CCN(S(=O)(=O)C(C)C)CC2)nn1 [Example 4.22, (2R,3R,4S,5R,6R)-2-(hydroxymethyl)-6-((4-(1-(isopropylsulfonyl)piperidin-4-yl)-1H-1,2,3-triazol-1-yl)methyl)-5-methoxy-4-(4-(3,4,5-trifluorophenyl)-1H-1,2,3-triazol-1-yl)tetrahydro-2H-pyran-3-ol]
61 nM | 1240 nM | CO[C@@H]1[C@@H](n2cc(-c3cc(F)c(F)c(F)c3)nn2)[C@@H](O)[C@@H](CO)O[C@@H]1Cn1cc(C2CCN(S(=O)(=O)N(C)C)CC2)nn1 [Example 4.26, 4-(1-(((2R,3R,4S,5R,6R)-5-hydroxy-6-(hydroxymethyl)-3-methoxy-4-(4-(3,4,5-trifluorophenyl)-1H-1,2,3-triazol-1-yl)tetrahydro-2H-pyran-2-yl)methyl)-1H-1,2,3-triazol-4-yl)-N,N-dimethylpiperidine-1-sulfonamide]

Reference: patent US12319672B2, “Alpha-D-galactopyranoside derivatives” (Idorsia Pharmaceuticals Ltd, priority 2019, dated 2025)
